Reference: US5767297A, “Taxoid derivative and method of producing thereof” (Ensuiko Sugar Refining Co., Ltd., priority 1997, dated 1998)
≈ marks a conversion by molar mass, not a printed value.

Columns and labels:
[1] = literature, I. Ringer et al.; cited from earlier work
[2] = water, 18 h
Experimental: (§1) After stirring, supernatant was filtered by a membrane filter (0.45,μm) and a filtate was analyzed by HPLC.
(§2) Colum: Taxil 5μ (4.6×250 mm), made by MetaChem
Solvent: MeOH/H2 O (80/20)
Detector: photodiode detector (230 nm)

[3] = solubility in water (stirred 18 hours, filtrate analyzed by HPLC)
Experimental: as §1, §2
Solvent: MeOH/H2 O (80/20)
Detector: photodiode detector (230 nm)

[4] = stability in aqueous solutions; format: physicochemical
[5] = tested on: tubulin; assay: microtubule depolymerization-inhibiting activity (absorbance at 350 nm after adding calcium chloride); format: biochemical; conditions: relative to paclitaxel; 5 μM
Experimental: Next, each of the above-described samples is mixed with tubulin (a main constituting protein of microtubule) and allowed to react at 37° C. for 15 minutes. Absorbance at 350 nm of the reaction solution was measured at 2, 5, 10 and 15 minutes after initiation of the reaction. Also, after the reaction ended, calcium chloride was added and, 5 minutes after this adding, absorbance at 350 nm was again measured. From each measured value was determined relative activity of each sample in the case that polymerization-promoting activity and depolymerization-inhibiting activity were taken as 100, and the results are shown in Table 2.

| Compound | solubility at 18 h [3] | stability in aqueous solutions [4] | also measured |
| --- | --- | --- | --- |
| CC(=O)O[C@@]12CO[C@@H]1C[C@H](O)[C@@]1(C)C(=O)[C@H](O)C3=C(C)[C@@H](OC(=O)[C@H](O)[C@@H](NC(=O)OC(C)(C)C)c4ccccc4)C[C@@](O)([C@@H](OC(=O)c4ccccc4)[C@H]21)C3(C)C [docetaxel] | – | – | solubility in water relative to paclitaxel [1]: 1.3 times |
| CC(=O)O[C@H]1C(=O)[C@@]2(C)[C@H]([C@H](OC(=O)c3ccccc3)[C@]3(O)C[C@H](OC(=O)[C@H](O)[C@@H](NC(=O)c4ccccc4)c4ccccc4)C(C)=C1C3(C)C)[C@]1(OC(C)=O)CO[C@@H]1C[C@@H]2O [Paclitaxel, paclitaxel] | – | – | Solubility [2]: 0.4 µg/mL (≈ 0.468 µM) |
| CC(=O)O[C@H]1C(=O)[C@]2(C)[C@@H](OC(=O)COC3O[C@H](CO)[C@@H](O)[C@H](O)[C@H]3O)C[C@H]3OC[C@@]3(OC(C)=O)[C@H]2[C@H](OC(=O)c2ccccc2)[C@]2(O)C[C@H](OC(=O)[C@H](OC(=O)COC3O[C@H](CO)[C@@H](O)[C@H](O)[C@H]3O)[C@@H](NC(=O)c3ccccc3)c3ccccc3)C(C)=C1C2(C)C (some centres unmarked) [2',7-S-paclitaxel, Diglucosyloxyacetyl-2',7-paclitaxel] | 48.4 µg/mL (≈ 37.4 µM) | decomposed to paclitaxel in aqueous solutions and unstable in aqueous solutions | – |
| CC(=O)O[C@H]1C(=O)[C@@]2(C)[C@H]([C@H](OC(=O)c3ccccc3)[C@]3(O)C[C@H](OC(=O)[C@H](OC(=O)COC4O[C@H](CO)[C@@H](O)[C@H](O)[C@H]4O)[C@@H](NC(=O)c4ccccc4)c4ccccc4)C(C)=C1C3(C)C)[C@]1(OC(C)=O)CO[C@@H]1C[C@@H]2O (some centres unmarked) [2'-S-paclitaxel, Glucosyloxyacetyl-2'-paclitaxel] | 30.6 µg/mL (≈ 28.5 µM) | decomposed to paclitaxel in aqueous solutions and unstable in aqueous solutions | – |
| CC(=O)O[C@H]1C(=O)[C@]2(C)[C@@H](OC(=O)COC3O[C@H](CO)[C@@H](O)[C@H](O)[C@H]3O)C[C@H]3OC[C@@]3(OC(C)=O)[C@H]2[C@H](OC(=O)c2ccccc2)[C@]2(O)C[C@H](OC(=O)[C@H](O)[C@@H](NC(=O)c3ccccc3)c3ccccc3)C(C)=C1C2(C)C (some centres unmarked) [7-S-paclitaxel, Glucosyloxyacetyl-7-paclitaxel] | 14.7 µg/mL (≈ 13.7 µM) | – | depolymerization-inhibiting activity compared with paclitaxel (in words) [5]: more than twice as potent as that of paclitaxel |
